Source: patent US10030020B2, “Spirocycle compounds and methods of making and using same” (Abide Therapeutics, Inc., priority 2016, dated 2018)

Columns and labels:
Format in all cases: biochemical
ABHD6 = ABHD6 (Mus musculus (Mouse), UniProt Q8R2Y0); experiment: In vitro competitive activity-based protein profiling (mouse brain membrane fraction or cell lysates), ABHD6 band; settings: mouse proteome; for inhibition at 1 µM: read-out: ABHD6 % Inh 1 μM (mouse); for IC50: competitive ABPP
Procedure: (§1) In Vitro Competitive Activity-Based Protein Profiling.
(§2) Proteomes (mouse brain membrane fraction or cell lysates) (50 μL, 1.0 mg/mL total protein concentration) were preincubated with varying concentrations of inhibitors at 37° C. After 30 min, FP—Rh (1.0 μL, 50 μM in DMSO) was added and the mixture was incubated for another 30 min at 37° C. Reactions were quenched with SDS loading buffer (50 μL-4×) and run on SDS-PAGE. Following gel imaging, serine hydrolase activity was determined by measuring fluorescent intensity of gel bands corresponding to MAGL, ABHD6 and FAAH using ImageJ 1.43u software.

MAGL = MAGL (Mus musculus (Mouse), UniProt O35678); experiment: In vitro competitive activity-based protein profiling (mouse brain membrane fraction or cell lysates), MAGL band; settings: mouse proteome; for inhibition at 1 µM: read-out: MAGL % Inh 1 μM (mouse); for IC50: competitive ABPP
Sequence of MAGL (O35678 whole entry): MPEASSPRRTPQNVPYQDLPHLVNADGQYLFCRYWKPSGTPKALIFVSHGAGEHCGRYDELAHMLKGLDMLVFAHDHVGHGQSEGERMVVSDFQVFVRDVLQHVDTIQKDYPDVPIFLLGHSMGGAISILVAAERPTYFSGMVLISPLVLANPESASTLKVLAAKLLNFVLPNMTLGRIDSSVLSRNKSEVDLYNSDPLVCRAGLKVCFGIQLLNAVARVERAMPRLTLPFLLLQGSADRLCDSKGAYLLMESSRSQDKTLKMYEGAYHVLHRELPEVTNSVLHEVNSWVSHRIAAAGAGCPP
Procedure: as §1
Proteomes (mouse brain membrane fraction or cell lysates) (50 μL, 1.0 mg/mL total protein concentration) were preincubated with varying concentrations of inhibitors at 37° C. After 30 min, FP—Rh (1.0 μL, 50 μM in DMSO) was added and the mixture was incubated for another 30 min at 37° C. Reactions were quenched with SDS loading buffer (50 μL-4×) and run on SDS-PAGE.

FAAH = FAAH (Mus musculus (Mouse), UniProt O08914); experiment: In vitro competitive activity-based protein profiling (mouse brain membrane fraction or cell lysates), FAAH band; settings: mouse proteome; for inhibition at 1 µM: read-out: FAAH % Inh 1 μM (mouse); for IC50: competitive ABPP
Sequence of FAAH (O08914 whole entry): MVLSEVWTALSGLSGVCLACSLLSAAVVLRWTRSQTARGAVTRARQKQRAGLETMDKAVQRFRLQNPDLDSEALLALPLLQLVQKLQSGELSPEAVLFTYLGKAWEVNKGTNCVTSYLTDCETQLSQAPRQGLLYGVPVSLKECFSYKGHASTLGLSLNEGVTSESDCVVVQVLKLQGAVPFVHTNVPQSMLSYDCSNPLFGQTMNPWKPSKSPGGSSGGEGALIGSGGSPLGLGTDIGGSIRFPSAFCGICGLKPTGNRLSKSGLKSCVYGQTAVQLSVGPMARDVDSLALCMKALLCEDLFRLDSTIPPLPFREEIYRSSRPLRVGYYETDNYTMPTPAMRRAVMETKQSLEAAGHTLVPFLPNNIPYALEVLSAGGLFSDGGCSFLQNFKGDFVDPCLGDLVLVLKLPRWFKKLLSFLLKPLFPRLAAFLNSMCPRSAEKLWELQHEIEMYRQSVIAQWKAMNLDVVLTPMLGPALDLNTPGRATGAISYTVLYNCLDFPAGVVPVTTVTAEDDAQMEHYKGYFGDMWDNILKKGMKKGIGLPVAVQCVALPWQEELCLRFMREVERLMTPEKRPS
Procedure: as §1, §2

Sequence of ABHD6 (Q8R2Y0 whole entry): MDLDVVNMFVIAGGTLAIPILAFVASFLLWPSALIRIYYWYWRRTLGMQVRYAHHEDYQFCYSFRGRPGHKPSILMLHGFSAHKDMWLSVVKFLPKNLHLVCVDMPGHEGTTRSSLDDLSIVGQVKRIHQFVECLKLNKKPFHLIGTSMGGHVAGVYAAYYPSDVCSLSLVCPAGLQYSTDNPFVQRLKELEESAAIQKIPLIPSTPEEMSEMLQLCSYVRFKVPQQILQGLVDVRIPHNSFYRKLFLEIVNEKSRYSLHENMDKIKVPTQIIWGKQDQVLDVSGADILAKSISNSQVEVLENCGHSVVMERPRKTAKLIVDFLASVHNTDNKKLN

| Compound | inhibition at 1 µM (ABHD6) | IC50 (ABHD6) | inhibition at 1 µM (MAGL) | IC50 (MAGL) | inhibition at 1 µM (FAAH) | IC50 (FAAH) |
| --- | --- | --- | --- | --- | --- | --- |
| CC1(C)CC2(CCN(C(=O)OC(C(F)(F)F)C(F)(F)F)CC2)CN1Cc1c(N2CCC3(CCOCC3)C2)cccc1C(F)(F)F [Example 56, 1,1,1,3,3,3-Hexafluoropropan-2-yl 2-(2-(8-oxa-2-azaspiro[4.5]decan-2-yl)-6-(trifluoromethyl)benzyl)-3,3-dimethyl-2,8-diazaspiro[4.5]decane-8-carboxylate] | < 25% | > 1000 nM | 25 to 75% | 100 to 1000 nM | < 25% | > 1000 nM |
| CC1(C)CC2(CCN(C(=O)OC(C(F)(F)F)C(F)(F)F)CC2)CN1Cc1c(N2CC3COCC3C2)cccc1C(F)(F)F (stereo not drawn) [Example 57, 1,1,1,3,3,3-Hexafluoropropan-2-yl 3,3-dimethyl-2-(2-(tetrahydro-1H-furo[3,4-c]pyrrol-5(3H)-yl)-6-(trifluoromethyl)benzyl)-2,8-diazaspiro[4.5]decane-8-carboxylate] | < 25% | > 1000 nM | > 75% | – | < 25% | > 1000 nM |
| O=C(OC(C(F)(F)F)C(F)(F)F)N1CCC2(CCN(Cc3cccc(N4CCCC4)c3)C2)CC1 [Example 58, 1,1,1,3,3,3-Hexafluoropropan-2-yl 2-(3-(pyrrolidin-1-yl)benzyl)-2,8-diazaspiro[4.5]decane-8-carboxylate] | ≥ 75% | 100 to 1000 nM | > 75% | 100 to 1000 nM | < 25% | > 1000 nM |
| O=C(OC(C(F)(F)F)C(F)(F)F)N1CCC2(CCN(Cc3c(N4CCCC4)cccc3C(F)(F)F)C2)CC1 [Example 59, 1,1,1,3,3,3-Hexafluoropropan-2-yl 2-(2-(pyrrolidin-1-yl)-6-(trifluoromethyl)benzyl)-2,8-diazaspiro[4.5]decane-8-carboxylate] | < 25% | > 1000 nM | > 75% | 100 to 1000 nM | < 25% | > 1000 nM |
| O=C(OC(C(F)(F)F)C(F)(F)F)N1CCC2(CCCN2Cc2ccccc2)CC1 [Example 63, 1,1,1,3,3,3-Hexafluoropropan-2-yl 1-benzyl-1,8-diazaspiro[4.5]decane-8-carboxylate] | < 25% | > 1000 nM | > 75% | – | < 25% | > 1000 nM |
| O=C(OC(C(F)(F)F)C(F)(F)F)N1CCC2(CCCN2Cc2cccc(N3CCOCC3)c2)CC1 [Example 69, 1,1,1,3,3,3-Hexafluoropropan-2-yl 1-(3-morpholinobenzyl)-1,8-diazaspiro[4.5]decane-8-carboxylate] | < 25% | > 1000 nM | > 75% | – | < 25% | – |
| CC(=O)N1CCCc2cccc(CN3CCC4(CCN(C(=O)OC(C(F)(F)F)C(F)(F)F)CC4)C3)c21 [Example 70, 1,1,1,3,3,3-Hexafluoropropan-2-yl 2-((1-acetyl-1,2,3,4-tetrahydroquinolin-8-yl)methyl)-2,8-diazaspiro[4.5]decane-8-carboxylate] | ≥ 75% | 100 to 1000 nM | > 75% | – | < 25% | – |
| Cc1c(CN2CCCC23CCN(C(=O)OC(C(F)(F)F)C(F)(F)F)CC3)cccc1N1CCOCC1 [Example 83, 1,1,1,3,3,3-Hexafluoropropan-2-yl 1-(2-methyl-3-morpholinobenzyl)-1,8-diazaspiro[4.5]decane-8-carboxylate] | < 25% | > 1000 nM | > 75% | < 100 nM | < 25% | > 1000 nM |
| O=C(OC(C(F)(F)F)C(F)(F)F)N1CCC2(CCCN2Cc2ccc(C(F)(F)F)cc2N2CCS(=O)(=O)CC2)CC1 [Example 92, 1,1,1,3,3,3-Hexafluoropropan-2-yl 1-(2-(1,1-dioxidothiomorpholino)-4-(trifluoromethyl)benzyl)-1,8-diazaspiro[4.5]decane-8-carboxylate] | ≥ 75% | 100 to 1000 nM | > 75% | < 100 nM | < 25% | > 1000 nM |
| O=C(OC(C(F)(F)F)C(F)(F)F)N1CCC2(CCCN2Cc2ccc(C(F)(F)F)cc2N2CCCCCC2)CC1 [Example 95, 1,1,1,3,3,3-Hexafluoropropan-2-yl 1-(2-(azepan-1-yl)-4-(trifluoromethyl)benzyl)-1,8-diazaspiro[4.5]decane-8-carboxylate] | < 25% | > 1000 nM | 25 to 75% | 100 to 1000 nM | < 25% | > 1000 nM |
| CCN1CCN(c2cc(Cl)ccc2CN2CCCC23CCN(C(=O)OC(C(F)(F)F)C(F)(F)F)CC3)CC1 [Example 98, 1,1,1,3,3,3-Hexafluoropropan-2-yl 1-(4-chloro-2-(4-ethylpiperazin-1-yl)benzyl)-1,8-diazaspiro[4.5]decane-8-carboxylate] | < 25% | > 1000 nM | > 75% | 100 to 1000 nM | < 25% | > 1000 nM |
| O=C(OC(C(F)(F)F)C(F)(F)F)N1CCC2(CCCN2Cc2ccc(Cl)cc2N2CCS(=O)(=O)CC2)CC1 [Example 103, 1,1,1,3,3,3-Hexafluoropropan-2-yl 1-(4-chloro-2-(1,1-dioxidothiomorpholino)benzyl)-1,8-diazaspiro[4.5]decane-8-carboxylate] | ≥ 75% | 100 to 1000 nM | > 75% | 100 to 1000 nM | < 25% | > 1000 nM |
| O=C(OC(C(F)(F)F)C(F)(F)F)N1CCC2(CCCN2Cc2ccc(Cl)cc2N2CCCCCC2)CC1 [Example 106, 1,1,1,3,3,3-Hexafluoropropan-2-yl 1-(2-(azepan-1-yl)-4-chlorobenzyl)-1,8-diazaspiro[4.5]decane-8-carboxylate] | < 25% | > 1000 nM | > 75% | 100 to 1000 nM | < 25% | > 1000 nM |
| O=C(OC(C(F)(F)F)C(F)(F)F)N1CCC2(CCCN2Cc2cccc(N3C4CCC3COC4)c2Cl)CC1 [Example 109, 1,1,1,3,3,3-Hexafluoropropan-2-yl 1-(3-(3-oxa-8-azabicyclo[3.2.1]octan-8-yl)-2-chlorobenzyl)-1,8-diazaspiro[4.5]decane-8-carboxylate] | < 25% | > 1000 nM | > 75% | < 100 nM | < 25% | > 1000 nM |
| O=C(OC(C(F)(F)F)C(F)(F)F)N1CCC2(CCCN2Cc2cccc(N3CCC(F)CC3)c2Cl)CC1 [Example 110, 1,1,1,3,3,3-Hexafluoropropan-2-yl 1-(2-chloro-3-(4-fluoropiperidin-1-yl)benzyl)-1,8-diazaspiro[4.5]decane-8-carboxylate] | < 25% | > 1000 nM | > 75% | < 100 nM | < 25% | > 1000 nM |
| O=C(OC(C(F)(F)F)C(F)(F)F)N1CCC2(CCCN2Cc2cccc(N3CCC(F)(F)CC3)c2Cl)CC1 [Example 111, 1,1,1,3,3,3-Hexafluoropropan-2-yl 1-(2-chloro-3-(4,4-difluoropiperidin-1-yl)benzyl)-1,8-diazaspiro[4.5]decane-8-carboxylate] | < 25% | > 1000 nM | > 75% | < 100 nM | < 25% | > 1000 nM |
| O=C(OC(C(F)(F)F)C(F)(F)F)N1CCC2(CCCN2Cc2cccc(N3CC4COCC4C3)c2Cl)CC1 (stereo not drawn) [Example 112, 1,1,1,3,3,3-Hexafluoropropan-2-yl 1-(2-chloro-3-(tetrahydro-1H-furo[3,4-c]pyrrol-5(3H)-yl)benzyl)-1,8-diazaspiro[4.5]decane-8-carboxylate] | < 25% | > 1000 nM | > 75% | < 100 nM | < 25% | > 1000 nM |
| CS(=O)(=O)N1CCN(c2cccc(CN3CCCC34CCN(C(=O)OC(C(F)(F)F)C(F)(F)F)CC4)c2Cl)CC1 [Example 113, 1,1,1,3,3,3-Hexafluoropropan-2-yl 1-(2-chloro-3-(4-(methylsulfonyl)piperazin-1-yl)benzyl)-1,8-diazaspiro[4.5]decane-8-carboxylate] | < 25% | > 1000 nM | > 75% | < 100 nM | < 25% | > 1000 nM |
| CC(=O)N1CCN(c2cccc(CN3CCCC34CCN(C(=O)OC(C(F)(F)F)C(F)(F)F)CC4)c2Cl)CC1 [Example 114, 1,1,1,3,3,3-Hexafluoropropan-2-yl 1-(3-(4-acetylpiperazin-1-yl)-2-chlorobenzyl)-1,8-diazaspiro[4.5]decane-8-carboxylate] | 25 to 75% | > 1000 nM | > 75% | < 100 nM | < 25% | > 1000 nM |
